Results published in patent US7547804B2, “Compounds, compositions, and methods employing same” (Myriad Genetics, Inc., priority 2002, dated 2009).

The molecules below were run on LNCaP cell lines (assay: WST-1 Cell Proliferation and Viability Assay). Conditions: Homo sapiens; LNCaP cells, compound incubation 18-72 hours.
Type: cell-based
Protocol: WST-1 Cell Proliferation and Viability Assay
Cell proliferation and cell viability was assessed using the tetrazolium salt WST-1 (Roche Applied Science, Indianapolis Ind.). The assay is based on the cleavage of WST-1 (light red) by mitochondrial dehydrogenase causing the formation of formazan (dark red), which can be measured on an optical density (O.D.) reader. LNCaP cell lines were plated in 96 well tissue culture plates (Corning Costar, N.Y.) at a density of 5000 cells/well in 150 μl complete media phenol-red free (RPMI-1640 [Invitrogen, Carlsbad Calif.] and 10% fetal calf serum). This plate is termed the assay plate. After the cells are plated, they are then incubated overnight at 37 degrees Celsius in a humidified chamber containing 5% CO2 (incubator).
Compounds are added to the assay plate in 50 μl of complete media and 0.4% DMSO (v:v) making the final DMSO concentration 0.1%. The assay plate is then returned to the incubator for 18-72 hours. WST-1 reagent is then added (20 μl/well) and the plate is placed on an ELISA plate shaker for 30 minutes at room temperature. Plates are then transferred back to the incubator for an additional 3 hours. Plates are then read on a 96 well plate O.D. reader at A490-A650.

Q: For `CC(C)c1ccc(CNc2cccc(NC(=O)c3cc(Cl)ccc3O)c2)cc1` [Compound 14], which EC50 is on record?
A: The EC50 was 18 µM.

Q: Which EC50 does the source give for `COc1ccc(CCOc2ccc(Cl)cc2NC(=O)c2cc(Cl)ccc2O)cc1` [Compound 79] here?
A: The EC50 was 2 µM.

Q: `CC(C)c1ccccc1-c1cccc(CNC(=O)c2cc(Cl)ccc2O)c1` [Compound 174] was tested. Which EC50 did it give?
A: The EC50 was 11 µM.

Q: `O=C(Nc1cc(C(F)(F)F)ccc1OCc1cccc(C(F)(F)F)c1)c1cc(Cl)ccc1O` [Compound 327] was tested. Which EC50 did it give?
A: The EC50 was 2.1 µM.

Q: How did the EC50 turn out when `COc1ccc(CCOc2cccc(NC(=O)c3cc(Cl)ccc3O)c2)cc1OC` [Compound 34] was run?
A: The EC50 was 10 µM.

Q: Which EC50 does the source give for `O=C(Nc1cc(Cl)ccc1Oc1ccc(Cl)c2ccccc12)c1cc(Cl)ccc1O` [Compound 31] here?
A: The EC50 was 2 µM.

Q: With `O=C(Nc1cc(C(F)(F)F)ccc1SCCc1cccc(C(F)(F)F)c1)c1cc(Cl)ccc1O` [Compound 260] as the molecule, how does the EC50 read?
A: Its EC50 is 1 µM.

Q: For `CN(CC(=O)OC(C)(C)C)c1ccc(NC(=O)c2cc(Cl)ccc2O)c(OCCc2cccc(C(F)(F)F)c2)c1` [Compound 373], which EC50 is on record?
A: The EC50 was 2.9 µM.

Q: How did the EC50 turn out when `O=C(Nc1cc(Cl)ccc1OCc1ccccc1)c1cc(Cl)ccc1O` [Compound 289] was run?
A: The EC50 was 3.3 µM.

Q: `O=C(Nc1cc(Cl)cc(Cl)c1OCCc1cccc(C(F)(F)F)c1)c1cc(Cl)ccc1O` [Compound 242] was tested. Which EC50 did it give?
A: Its EC50 is 2 µM.

Q: How did the EC50 turn out when `O=C(Nc1cc(C(F)(F)F)cc(Cl)c1OCCc1ccccc1C(F)(F)F)c1cc(Cl)ccc1O` [Compound 251] was run?
A: The EC50 was 2 µM.

Q: `O=C(Nc1cccc(OCCc2ccccc2)c1)c1ccc(F)cc1O` [Compound 191] was tested. Which EC50 did it give?
A: Its EC50 is 15 µM.

Q: How did the EC50 turn out when `COc1ccccc1CCOc1cccc(NC(=O)c2cc(Cl)ccc2NS(C)(=O)=O)c1` [Compound 337] was run?
A: Its EC50 is 19 µM.

Q: With `CC(C)COc1ccc(Cl)cc1NC(=O)c1cc(Cl)ccc1O` [Compound 246] as the molecule, how does the EC50 read?
A: The EC50 was 2 µM.

Q: How did the EC50 turn out when `Cc1cccc(OCCc2ccccc2C(F)(F)F)c1NC(=O)c1cc(Cl)ccc1O` [Compound 173] was run?
A: The EC50 was 11 µM.

Q: For `COc1ccccc1CCOc1cccc(NC(=O)c2cc(-c3ccccc3OC)ccc2O)c1` [Compound 343], which EC50 is on record?
A: The EC50 was 17 µM.

Q: With `CC(C)c1cc(C(=O)Nc2cccc(OCCc3ccccc3)c2)c(O)c(C(C)C)c1` [Compound 200] as the molecule, how does the EC50 read?
A: Its EC50 is 37 µM.

Q: Which EC50 does the source give for `CCOCCOc1ccc(C(F)(F)F)cc1NC(=O)c1cc(Cl)ccc1O` [Compound 295] here?
A: The EC50 was 1 µM.

Q: Which EC50 does the source give for `Cc1cccc(COc2ccc(Cl)cc2NC(=O)c2cc(Cl)ccc2O)c1` [Compound 311] here?
A: The EC50 was 3 µM.

Q: For `O=C(Nc1cc(C(F)(F)F)ccc1OC1CCCCC1c1ccccc1)c1cc(Cl)ccc1O` (centres unmarked) [Compound 280], which EC50 is on record?
A: The EC50 was 1 µM.

Q: How did the EC50 turn out when `COc1cccc(CCOc2ccc(Cl)c(NC(=O)c3cc(Cl)ccc3O)c2)c1` [Compound 33] was run?
A: Its EC50 is 3 µM.

Q: Which EC50 does the source give for `Cc1ccc(OCCc2ccccc2C(F)(F)F)c(NC(=O)c2cc(Cl)ccc2O)c1` [Compound 142] here?
A: The EC50 was 3 µM.

Q: With `COC(=O)C=Cc1ccccc1CCOc1ccc(Cl)cc1NC(=O)c1cc(Cl)ccc1O` [Compound 302] as the molecule, how does the EC50 read?
A: The EC50 was 3 µM.

Q: For `O=C(Nc1cc(OC(F)(F)F)ccc1OCCc1cccc(C(F)(F)F)c1)c1cc(Cl)ccc1O` [Compound 262], which EC50 is on record?
A: The EC50 was 0.9 µM.

Q: How did the EC50 turn out when `Cc1cccc(NC(=O)c2cc(Cl)ccc2O)c1` [Compound 113] was run?
A: The EC50 was 8 µM.

Q: With `Cc1cc(C)cc(COc2cccc(NC(=O)c3cc(Cl)ccc3O)c2)c1` [Compound 105] as the molecule, how does the EC50 read?
A: The EC50 was 8 µM.

Q: Which EC50 does the source give for `O=C(Nc1cc(C(F)(F)F)ccc1N1CCN(c2ccccc2)CC1)c1cc(Cl)ccc1O` [Compound 272] here?
A: The EC50 was 0.9 µM.

Q: How did the EC50 turn out when `O=C(Nc1cc(Cl)ccc1OCCc1cccc(OC(F)(F)F)c1)c1cc(Cl)ccc1O` [Compound 284] was run?
A: The EC50 was 2 µM.

Q: Which EC50 does the source give for `Nc1cc(Cl)cc(C(=O)Nc2cc(Cl)ccc2OCCc2ccccc2)c1O` [Compound 330] here?
A: Its EC50 is 19.7 µM.

Q: With `O=C(Nc1cccc(OCCc2ccccc2)c1)c1cc(-c2ccc(F)cc2F)ccc1O` [Compound 226] as the molecule, how does the EC50 read?
A: The EC50 was 7 µM.

Q: How did the EC50 turn out when `COc1ccccc1CCOc1cccc(NC(=O)c2cc(-c3ccsc3)ccc2O)c1` [Compound 335] was run?
A: Its EC50 is 13 µM.

Q: Which EC50 does the source give for `O=C(Nc1cc(C(F)(F)F)cc(Cl)c1OCCc1ccc(C(F)(F)F)cc1)c1cc(Cl)ccc1O` [Compound 130] here?
A: The EC50 was 2 µM.

Q: For `COc1ccc(O)c(C(=O)Nc2cccc(OCCc3ccccc3)c2)c1` [Compound 187], which EC50 is on record?
A: The EC50 was 30 µM.

Q: `CCC(COc1ccc(Cl)cc1NC(=O)c1cc(Cl)ccc1O)c1ccccc1` (centres unmarked) [Compound 103] was tested. Which EC50 did it give?
A: Its EC50 is 2 µM.

Q: With `O=C(Nc1cc(Cl)ccc1OCCc1ccc(F)cc1)c1cc(Cl)ccc1O` [Compound 106] as the molecule, how does the EC50 read?
A: The EC50 was 1 µM.

Q: How did the EC50 turn out when `O=C(Nc1ccc(OC2CCCC[C@H]2c2ccccc2)cc1)c1cc(Cl)ccc1O` (some centres unmarked) [Compound 97] was run?
A: The EC50 was 3 µM.

Q: For `COc1ccccc1CCOc1cccc(NC(=O)c2ccc(C)cc2O)c1` [Compound 208], which EC50 is on record?
A: The EC50 was 21 µM.

Q: With `COc1ccc(O)c(C(=O)Nc2cccc(OCCc3ccccc3OC)c2)c1` [Compound 186] as the molecule, how does the EC50 read?
A: Its EC50 is 22 µM.

Q: Which EC50 does the source give for `CN(CC(=O)O)c1ccc(NC(=O)c2cc(Cl)ccc2O)c(OCCc2cccc(C(F)(F)F)c2)c1` [Compound 375] here?
A: The EC50 was 19 µM.

Q: With `O=C(Nc1cccc(OC2CCCC[C@H]2c2ccccc2)c1)c1cc(Cl)ccc1O` (some centres unmarked) [Compound 17] as the molecule, how does the EC50 read?
A: The EC50 was 2 µM.

Q: For `COc1ccccc1CCOc1cccc(NC(=O)c2cc(-c3ccc4ccccc4c3)ccc2O)c1` [Compound 347], which EC50 is on record?
A: Its EC50 is 6 µM.

Q: With `O=C(Nc1cccc(OCCc2ccccc2C(F)(F)F)c1)c1cc(Cl)ccc1O` [Compound 138] as the molecule, how does the EC50 read?
A: The EC50 was 6 µM.

Q: Which EC50 does the source give for `O=C(Nc1cc(Cl)ccc1OCc1ccc(C(F)(F)F)cc1)c1cc(Cl)ccc1O` [Compound 328] here?
A: Its EC50 is 1.6 µM.

Q: `COc1ccccc1CCOc1ccc(Cl)c(NC(=O)c2cc(Cl)ccc2O)c1` [Compound 32] was tested. Which EC50 did it give?
A: The EC50 was 6 µM.

Q: For `O=C(Nc1cc(OCCc2ccccc2)ccc1Cl)c1cc(Cl)ccc1O` [Compound 27], which EC50 is on record?
A: The EC50 was 4 µM.

Q: For `O=C(Nc1cc(C(F)(F)F)cc(Cl)c1OCCc1cccc(C(F)(F)F)c1)c1cc(Cl)ccc1O` [Compound 252], which EC50 is on record?
A: The EC50 was 1 µM.

Q: For `O=C(Nc1cc(Cl)ccc1OCC(c1ccccc1)c1ccccc1)c1cc(Cl)ccc1O` [Compound 117], which EC50 is on record?
A: The EC50 was 2 µM.

Q: Which EC50 does the source give for `O=C(Nc1cc(C(F)(F)F)ccc1OCCc1ccc(Cl)s1)c1cc(Cl)ccc1O` [Compound 254] here?
A: Its EC50 is 1 µM.

Q: How did the EC50 turn out when `O=C(Nc1cccc(OCCc2ccccc2)c1)c1cccc(-c2ccccc2)c1O` [Compound 224] was run?
A: The EC50 was 22 µM.

Q: `O=C(Nc1ccc(Cl)cc1)c1cc(Cl)ccc1O` [Compound 93] was tested. Which EC50 did it give?
A: Its EC50 is 4 µM.

Q: `O=C(Nc1cc(C(F)(F)F)ccc1OCCOc1ccc(Cl)cc1)c1cc(Cl)ccc1O` [Compound 300] was tested. Which EC50 did it give?
A: The EC50 was 1 µM.

Q: Which EC50 does the source give for `COc1cccc(CCOc2ccc(Cl)cc2NC(=O)c2cc(Cl)ccc2O)c1` [Compound 112] here?
A: The EC50 was 2 µM.

Q: Which EC50 does the source give for `O=C(Nc1cc(C(F)(F)F)ccc1OCCc1ccccc1)c1cc(Cl)ccc1O` [Compound 104] here?
A: The EC50 was 0.8 µM.

Q: How did the EC50 turn out when `COc1ccc(NC(=O)c2cc(Cl)ccc2O)cc1OCCc1ccccc1` [Compound 12] was run?
A: Its EC50 is 13 µM.

Q: With `O=C(NCc1ccc(Oc2ccccc2)cc1)c1cc(Cl)ccc1O` [Compound 26] as the molecule, how does the EC50 read?
A: The EC50 was 24 µM.

Q: How did the EC50 turn out when `O=C(Nc1cc(C(F)(F)F)ccc1OCCc1ccccc1C(F)(F)F)c1cc(Cl)ccc1O` [Compound 134] was run?
A: The EC50 was 0.9 µM.

Same assay, conditions: Homo sapiens; LNCaP cells; flagged "Estimated": based on actual data at different concentrations

Q: With `COc1ccccc1CCOc1cccc(N(C)C(=O)c2cc(Cl)ccc2OC)c1` [Compound 216] as the molecule, how does the EC50 read?
A: The EC50 was 32 µM.

Q: With `Cc1cc(C)cc(CNC(=O)c2cc(Cl)ccc2O)c1` [Compound 323] as the molecule, how does the EC50 read?
A: Its EC50 is 30 µM.

Q: How did the EC50 turn out when `O=C(Nc1cc(C(F)(F)F)ccc1OCC(F)(F)F)c1cc(Cl)ccc1O` [Compound 278] was run?
A: Its EC50 is 2 µM.

Q: With `O=C(Nc1cccc(OCc2ccc3c(c2)OCO3)c1)c1cc(Cl)ccc1O` [Compound 86] as the molecule, how does the EC50 read?
A: Its EC50 is 30 µM.

Q: Which EC50 does the source give for `O=C(NCCc1ccccc1OCc1ccccc1)c1cc(Cl)ccc1O` [Compound 119] here?
A: Its EC50 is 20 µM.

Q: How did the EC50 turn out when `CCc1ccccc1-c1cccc(CNC(=O)c2cc(Cl)ccc2O)c1` [Compound 146] was run?
A: The EC50 was 30 µM.
